Molecules are shown by their SMILES. Values after ≈ are worked out from the molar mass of the structure shown.

Consider nine compounds from ChEMBL document CHEMBL2311450, “Synthesis and antibacterial evaluation of novel 11,4″-disubstituted azithromycin analogs with greatly improved activity against erythromycin-resistant bacteria” (2013).

In experiment [1] the test system is Staphylococcus aureus. Put plainly: Antibacterial activity against erythromycin-susceptible Staphylococcus aureus ATCC 25923 by broth microdilution method. In kind it is functional.
The subject of experiment [2] is Streptococcus pyogenes. Put plainly: Antibacterial activity against erythromycin-resistant Streptococcus pyogenes RE clinical isolate by broth microdilution method. Type of experiment: functional.
The subject of experiment [3] is Salmonella typhimurium. The experiment in a line: Antibacterial activity against Salmonella typhimurium TA98 by broth microdilution method. Conditions: Salmonella enterica. Type of experiment: functional, Salmonella enterica subsp. enterica serovar Typhimurium.
Experiment [4] concerns Salmonella typhimurium. Put plainly: Antibacterial activity against Salmonella typhimurium TA102 by broth microdilution method. In kind it is functional, Salmonella enterica subsp. enterica serovar Typhimurium. Conditions: Salmonella enterica.
Experiment [5] has as its system Staphylococcus aureus. Put plainly: Antibacterial activity against methicillin-susceptible Staphylococcus aureus ATCC 29213 by broth microdilution method. In kind it is functional.
In experiment [6] the test system is Streptococcus pneumoniae. Put plainly: Antibacterial activity against erythromycin-resistant Streptococcus pneumoniae AB11 expressing erm and mef genes by broth microdilution method. Type of experiment: functional.
The test system of experiment [7] is Streptococcus pneumoniae. Put plainly: Antibacterial activity against erythromycin-susceptible Streptococcus pneumoniae ATCC 49619 by broth microdilution method. Type of experiment: functional.
The test system of experiment [8] is Streptococcus pneumoniae. Put plainly: Antibacterial activity against erythromycin-resistant Streptococcus pneumoniae B1 expressing erm gene by broth microdilution method. In kind it is functional.
Experiment [9] deals with Streptococcus pyogenes. Put plainly: Antibacterial activity against erythromycin-susceptible Streptococcus pyogenes by broth microdilution method. In kind it is functional.
For experiment [10], the system named is Streptococcus pneumoniae. The experiment in a line: Antibacterial activity against erythromycin-resistant Streptococcus pneumoniae A22072 expressing mef gene by broth microdilution method. In kind it is functional.
The test system of experiment [11] is Staphylococcus aureus. The experiment in a line: Antibacterial activity against penicillin-resistant Staphylococcus aureus clinical isolate by broth microdilution method. Type of experiment: functional.

For the compound `CC[C@H]1OC(=O)[C@H](C)[C@@H](O[C@H]2C[C@@](C)(OC)[C@@H](OC(=O)NCCCCNC(=O)c3ccc(OC)cc3)[C@H](C)O2)[C@H](C)[C@@H](O[C@@H]2O[C@H](C)C[C@H](N(C)C)[C@H]2O)[C@](C)(O)C[C@@H](C)CN(C)[C@H](C)[C@@H](OC(=O)NCc2ccc(C)c(C)c2)[C@]1(C)O`, the MIC against Staphylococcus aureus [1] came to 1 µg/mL (≈ 0.863 µM); against Streptococcus pyogenes [2] it was 64 µg/mL (≈ 55.2 µM); against Salmonella typhimurium [3], 8 µg/mL (≈ 6.91 µM); against Salmonella typhimurium [4] it was 1 µg/mL (≈ 0.863 µM); against Staphylococcus aureus [5], 8 µg/mL (≈ 6.91 µM); in the experiment on Streptococcus pneumoniae [6] it was 16 µg/mL (≈ 13.8 µM). Moreover, the MIC in the experiment with Streptococcus pneumoniae [7] came out at 0.12 µg/mL (≈ 0.104 µM); with Streptococcus pneumoniae [8], 4 µg/mL (≈ 3.45 µM); against Streptococcus pyogenes [9], 16 µg/mL (≈ 13.8 µM); in the experiment with Streptococcus pneumoniae [10] it was 0.5 µg/mL (≈ 0.432 µM); against Staphylococcus aureus [11] it was 4 µg/mL (≈ 3.45 µM).
Consider `CC[C@H]1OC(=O)[C@H](C)[C@@H](O[C@H]2C[C@@](C)(OC)[C@@H](OC(=O)NCCCCNC(=O)c3ccccc3OC)[C@H](C)O2)[C@H](C)[C@@H](O[C@@H]2O[C@H](C)C[C@H](N(C)C)[C@H]2O)[C@](C)(O)C[C@@H](C)CN(C)[C@H](C)[C@@H](OC(=O)NCCc2ccccc2)[C@]1(C)O`, for which the MIC was determined as 0.5 µg/mL (≈ 0.437 µM) with Staphylococcus aureus [1]; 16 µg/mL (≈ 14 µM) in the experiment with Streptococcus pyogenes [2]; 4 µg/mL (≈ 3.5 µM) in the experiment on Salmonella typhimurium [3]; 1 µg/mL (≈ 0.874 µM) against Salmonella typhimurium [4]; 32 µg/mL (≈ 28 µM) against Staphylococcus aureus [5]; 16 µg/mL (≈ 14 µM) against Streptococcus pneumoniae [6]. Also, the MIC came out at 0.12 µg/mL (≈ 0.105 µM) in the experiment with Streptococcus pneumoniae [7]; 8 µg/mL (≈ 6.99 µM) with Streptococcus pneumoniae [8]; 16 µg/mL (≈ 14 µM) in the experiment with Streptococcus pyogenes [9]; 2 µg/mL (≈ 1.75 µM) with Streptococcus pneumoniae [10]; 8 µg/mL (≈ 6.99 µM) in the experiment with Staphylococcus aureus [11].
In the case of `CC[C@H]1OC(=O)[C@H](C)[C@@H](O[C@H]2C[C@@](C)(OC)[C@@H](O)[C@H](C)O2)[C@H](C)[C@@H](O[C@@H]2O[C@H](C)C[C@H](N(C)C)[C@H]2O)[C@](C)(OC)C[C@@H](C)C(=O)[C@H](C)[C@@H](O)[C@]1(C)O` [CLARITHROMYCIN], the MIC in the experiment with Staphylococcus aureus [1] turned out to be 0.12 µg/mL (≈ 0.16 µM); in the experiment with Streptococcus pyogenes [2], 4 µg/mL (≈ 5.35 µM); in the experiment on Salmonella typhimurium [3], 0.5 µg/mL (≈ 0.668 µM); against Salmonella typhimurium [4], 0.25 µg/mL (≈ 0.334 µM); in the experiment with Staphylococcus aureus [5] it was 0.12 µg/mL (≈ 0.16 µM); against Streptococcus pneumoniae [6] it was 128 µg/mL (≈ 171 µM). For the same compound, the MIC against Streptococcus pneumoniae [7] was determined as 0.03 µg/mL (≈ 0.0401 µM); against Streptococcus pneumoniae [8], 64 µg/mL (≈ 85.6 µM); in the experiment with Streptococcus pyogenes [9] it was 0.03 µg/mL (≈ 0.0401 µM); with Streptococcus pneumoniae [10], 4 µg/mL (≈ 5.35 µM); against Staphylococcus aureus [11] it was 0.03 µg/mL (≈ 0.0401 µM).
Consider `CC[C@H]1OC(=O)[C@H](C)[C@@H](O[C@H]2C[C@@](C)(OC)[C@@H](OC(=O)NCCCCNC(=O)c3ccc(OC)cc3)[C@H](C)O2)[C@H](C)[C@@H](O[C@@H]2O[C@H](C)C[C@H](N(C)C)[C@H]2O)[C@](C)(O)C[C@@H](C)CN(C)[C@H](C)[C@@H](OC(=O)NCCc2ccccc2)[C@]1(C)O`, for which the MIC amounted to 1 µg/mL (≈ 0.874 µM) in the experiment with Staphylococcus aureus [1]; 64 µg/mL (≈ 55.9 µM) in the experiment with Streptococcus pyogenes [2]; 4 µg/mL (≈ 3.5 µM) in the experiment on Salmonella typhimurium [3]; 0.5 µg/mL (≈ 0.437 µM) against Salmonella typhimurium [4]; 0.5 µg/mL (≈ 0.437 µM) against Staphylococcus aureus [5]; 4 µg/mL (≈ 3.5 µM) against Streptococcus pneumoniae [6]. Further, the MIC amounted to 0.06 µg/mL (≈ 0.0524 µM) in the experiment with Streptococcus pneumoniae [7]; 1 µg/mL (≈ 0.874 µM) in the experiment with Streptococcus pneumoniae [8]; 16 µg/mL (≈ 14 µM) against Streptococcus pyogenes [9]; 0.25 µg/mL (≈ 0.218 µM) against Streptococcus pneumoniae [10]; 4 µg/mL (≈ 3.5 µM) in the experiment with Staphylococcus aureus [11].
With `CC[C@H]1OC(=O)[C@H](C)[C@@H](O[C@H]2C[C@@](C)(OC)[C@@H](OC(=O)NCCCCNC(=O)c3ccc(OC)cc3)[C@H](C)O2)[C@H](C)[C@@H](O[C@@H]2O[C@H](C)C[C@H](N(C)C)[C@H]2O)[C@](C)(O)C[C@@H](C)CN(C)[C@H](C)[C@@H](OC(=O)NCc2ccc(F)c(F)c2)[C@]1(C)O`, the MIC with Staphylococcus aureus [1] was 0.5 µg/mL (≈ 0.429 µM); against Streptococcus pyogenes [2], 64 µg/mL (≈ 54.9 µM); against Salmonella typhimurium [3], 4 µg/mL (≈ 3.43 µM); with Salmonella typhimurium [4] it was 32 µg/mL (≈ 27.4 µM); in the experiment on Staphylococcus aureus [5] it was 4 µg/mL (≈ 3.43 µM); in the experiment with Streptococcus pneumoniae [6] it was 16 µg/mL (≈ 13.7 µM). The minimum inhibitory concentration (MIC) against Streptococcus pneumoniae [7] is 0.03 µg/mL (≈ 0.0257 µM); in the experiment on Streptococcus pneumoniae [8] it was 4 µg/mL (≈ 3.43 µM); with Streptococcus pyogenes [9], 8 µg/mL (≈ 6.86 µM); with Streptococcus pneumoniae [10], 0.12 µg/mL (≈ 0.103 µM); in the experiment with Staphylococcus aureus [11], 4 µg/mL (≈ 3.43 µM).
For the compound `CC[C@H]1OC(=O)[C@H](C)[C@@H](O[C@H]2C[C@@](C)(OC)[C@@H](OC(=O)NCCCCNC(=O)c3ccc(OC)cc3)[C@H](C)O2)[C@H](C)[C@@H](O[C@@H]2O[C@H](C)C[C@H](N(C)C)[C@H]2O)[C@](C)(O)C[C@@H](C)CN(C)[C@H](C)[C@@H](OC(=O)NCc2ccc(F)cc2)[C@]1(C)O`, the MIC with Staphylococcus aureus [1] amounted to 1 µg/mL (≈ 0.871 µM); with Streptococcus pyogenes [2], 64 µg/mL (≈ 55.7 µM); against Salmonella typhimurium [3], 8 µg/mL (≈ 6.97 µM); in the experiment with Salmonella typhimurium [4] it was 1 µg/mL (≈ 0.871 µM); in the experiment with Staphylococcus aureus [5], 8 µg/mL (≈ 6.97 µM); against Streptococcus pneumoniae [6], 16 µg/mL (≈ 13.9 µM). Also, the MIC in the experiment on Streptococcus pneumoniae [7] turned out to be 0.06 µg/mL (≈ 0.0522 µM); with Streptococcus pneumoniae [8], 4 µg/mL (≈ 3.48 µM); against Streptococcus pyogenes [9] it was 32 µg/mL (≈ 27.9 µM); in the experiment on Streptococcus pneumoniae [10] it was 0.25 µg/mL (≈ 0.218 µM); with Staphylococcus aureus [11], 4 µg/mL (≈ 3.48 µM).
Take `CC[C@H]1OC(=O)[C@H](C)[C@@H](O[C@H]2C[C@@](C)(OC)[C@@H](OC(=O)NNC(=O)c3ccccc3OC)[C@H](C)O2)[C@H](C)[C@@H](O[C@@H]2O[C@H](C)C[C@H](N(C)C)[C@H]2O)[C@](C)(O)C[C@@H](C)CN(C)[C@H](C)[C@@H](OC(=O)NCCc2ccccc2)[C@]1(C)O`: the minimal inhibitory concentration (MIC) against Staphylococcus aureus [1] amounted to 2 µg/mL (≈ 1.84 µM); in the experiment with Streptococcus pyogenes [2], 64 µg/mL (≈ 58.8 µM); against Salmonella typhimurium [3], 16 µg/mL (≈ 14.7 µM); against Salmonella typhimurium [4], 8 µg/mL (≈ 7.35 µM); in the experiment on Staphylococcus aureus [5], 2 µg/mL (≈ 1.84 µM); against Streptococcus pneumoniae [6] it was 16 µg/mL (≈ 14.7 µM). Moreover, the MIC against Streptococcus pneumoniae [7] stood at 0.06 µg/mL (≈ 0.0551 µM); in the experiment with Streptococcus pneumoniae [8] it was 8 µg/mL (≈ 7.35 µM); against Streptococcus pyogenes [9], 32 µg/mL (≈ 29.4 µM); against Streptococcus pneumoniae [10], 2 µg/mL (≈ 1.84 µM); with Staphylococcus aureus [11] it was 4 µg/mL (≈ 3.68 µM).
Take `CC[C@H]1OC(=O)[C@H](C)[C@@H](O[C@H]2C[C@@](C)(OC)[C@@H](OC(=O)NCCNC(=O)c3cc([N+](=O)[O-])cc([N+](=O)[O-])c3)[C@H](C)O2)[C@H](C)[C@@H](O[C@@H]2O[C@H](C)C[C@H](N(C)C)[C@H]2O)[C@](C)(O)C[C@@H](C)CN(C)[C@H](C)[C@@H](OC(=O)NCCc2ccccc2)[C@]1(C)O`: the MIC in the experiment with Staphylococcus aureus [1] turned out to be 0.12 µg/mL (≈ 0.102 µM); against Streptococcus pyogenes [2], 64 µg/mL (≈ 54.4 µM); with Salmonella typhimurium [3], 0.5 µg/mL (≈ 0.425 µM); with Salmonella typhimurium [4], 2 µg/mL (≈ 1.7 µM); in the experiment on Staphylococcus aureus [5], 4 µg/mL (≈ 3.4 µM); against Streptococcus pneumoniae [6], 2 µg/mL (≈ 1.7 µM). The MIC in the experiment on Streptococcus pneumoniae [7] stood at 0.06 µg/mL (≈ 0.051 µM); against Streptococcus pneumoniae [8], 0.25 µg/mL (≈ 0.213 µM); in the experiment with Streptococcus pyogenes [9], 8 µg/mL (≈ 6.8 µM); against Streptococcus pneumoniae [10], 0.06 µg/mL (≈ 0.051 µM); in the experiment with Staphylococcus aureus [11], 4 µg/mL (≈ 3.4 µM).
In the case of `CC[C@H]1OC(=O)[C@H](C)[C@@H](O[C@H]2C[C@@](C)(OC)[C@@H](OC(=O)NCCNC(=O)c3ccc(OC)c(OC)c3)[C@H](C)O2)[C@H](C)[C@@H](O[C@@H]2O[C@H](C)C[C@H](N(C)C)[C@H]2O)[C@](C)(O)C[C@@H](C)CN(C)[C@H](C)[C@@H](OC(=O)NCCc2ccccc2)[C@]1(C)O`, the minimal inhibitory concentration (MIC) in the experiment with Staphylococcus aureus [1] turned out to be 1 µg/mL (≈ 0.872 µM); in the experiment with Streptococcus pyogenes [2], 64 µg/mL (≈ 55.8 µM); with Salmonella typhimurium [3] it was 8 µg/mL (≈ 6.98 µM); in the experiment with Salmonella typhimurium [4] it was 2 µg/mL (≈ 1.74 µM); against Staphylococcus aureus [5], 4 µg/mL (≈ 3.49 µM); with Streptococcus pneumoniae [6], 16 µg/mL (≈ 14 µM). For the same compound, the MIC against Streptococcus pneumoniae [7] is 0.06 µg/mL (≈ 0.0523 µM); in the experiment with Streptococcus pneumoniae [8] it was 4 µg/mL (≈ 3.49 µM); against Streptococcus pyogenes [9] it was 32 µg/mL (≈ 27.9 µM); in the experiment on Streptococcus pneumoniae [10] it was 0.5 µg/mL (≈ 0.436 µM); in the experiment with Staphylococcus aureus [11], 4 µg/mL (≈ 3.49 µM).
